Patent US7915005B2, “Methods for detecting sleepiness” (Washington University in St. Louis, priority 2005, dated 2011)
“Also recorded” adds a separate entry of the source. Where two headings read alike, the source gives them in different places.

Legend:
[1] = system: wild-type flies; conditions: literature and unpublished data; cited from earlier work
[2] = system: wild-type flies; assay: Homeostatic response (sleep recovered) in the 24 h after 14 h of drug-induced waking; type: in vivo, Drosophila melanogaster; conditions: for homeostatic response / compensation for sleep lost during drug-induced waking: 14 h on drug, 24 h recovery, caffeine 2.5 mg/ml, methamphetamine 1 mg/ml
Description: (§1) Three day old female flies were placed in 65 mm glass tubes and sleep parameters were continuously evaluated throughout all experiments using the Trikinetics activity monitoring system as previously described (Shaw, P J et al., 2000. Science 287: 1834-1837; Shaw, P J et al., 2002. Nature 417: 287-291) (www.Trikinetics.com). […] Three independent replicates of 32 flies were conducted for each time point. Following SD, two thirds of the flies from each group were frozen and RNA was extracted from whole heads. The remaining one third of the flies were monitored for an additional 24 h to assay the size of the homeostatic response. Using this protocol, both gene expression and behavior can be evaluated in siblings that have been exposed to identical environments and experimental manipulations.
(§2) Pharmacological studies were conducted on female Canton-s flies. Three-day old Cs female flies were individually placed into 65 mm glass tubes in the Trikinetics activity monitoring system and evaluated for two days under LD. […] All groups had similar amounts of baseline sleep. In all cases, the drug was dissolved in food along with an inert dye. It could be determined, therefore, if the fly had ingested the drug not only by its behavior, but also by observing the dye in its abdomen. The following morning, after 14 h of drug treatment, two thirds of the flies from each group were frozen and RNA was extracted from whole heads and the amount of dye in the abdomen was evaluated. The remaining one third of the flies were monitored for an additional 24 h to assay the size of the homeostatic response.
Sustained periods of waking in the fly can be induce pharmacologically (Hendricks, J C et al., 2000. Neuron 25: 129-138; Shaw, P J et al., 2000. Science 287: 1834-1837). […] Therefore wild-type flies were exposed to either caffeine or methamphetamine for 14 h and evaluated the magnitude of the homeostatic response. As above, gene expression was evaluated using qPCR and one third of the flies were allowed to recover for 24 h after drug removal and regular food was restored. […]

[3] = system: Amy/Luc flies; assay: Bioluminescence recording in Amy/Luc flies (amylase promoter linked to firefly luciferase); type: in vivo, Drosophila melanogaster; conditions: caffeine 2.5 mg/ml from the morning after a full night's sleep, recorded 12 h, n=9
Description: Prior to luminescence recordings, sleep was evaluated for 2 days in female Amy/Luc flies as described above with the exception that they were maintained on 0.5% sucrose supplemented with 1 mM beetle luciferin (Promega, Madison Wis.). On day 3, flies were sleep deprived for 12 h (n=9) or served as untreated controls (n=9). Flies that were sleep deprived were removed from their 65 mm glass tubes and placed into Petri dishes with 200 μl of fresh 0.5% sucrose 1 mM beetle luciferin. Siblings that had not been sleep deprived were placed into Petri dishes with 2.5 mg/ml of caffeine added to the 0.5% sucrose 1 mM beetle luciferin. Bioluminescence was subsequently recorded in 1 min bins for 12 h under photomultiplier tubes (HC135-11MOD; Hamamatsu, Shizouka, Japan) as previously described (Abraham, U, et al., 2005. J Neurosci 25: 8620-8626). Amy/Luc flies that had never been exposed to luciferin were recorded for 12 h and served as a blank. Luminescence for SD and caffeine treated flies was subtracted from the blank and smoothed using a 3 h running average. Two independent replicates were conducted.
To determine whether amylase can provide an assessment of sleep drive in real-time, a Drosophila line in which the promoter for amylase was linked to the firefly luciferase (Amy/Luc) was evaluated (Hickey, D A, et al., 1994. Proc Natl Acad Sci USA 91: 11109-11112). […]

[4] = system: wild-type flies; assay: Pharmacologically induced waking in flies (Trikinetics activity monitoring); type: in vivo, Drosophila melanogaster; conditions: drug dissolved in food
Description: as §1
Pharmacological studies were conducted on female Canton-s flies. Three-day old Cs female flies were individually placed into 65 mm glass tubes in the Trikinetics activity monitoring system and evaluated for two days under LD. […] It could be determined, therefore, if the fly had ingested the drug not only by its behavior, but also by observing the dye in its abdomen. The following morning, after 14 h of drug treatment, two thirds of the flies from each group were frozen and RNA was extracted from whole heads and the amount of dye in the abdomen was evaluated. […]

[5] = system: Amylase mRNA (CG18640); assay: qPCR of Amylase (CG18640) mRNA from whole heads after drug-induced waking; type: in vivo, Drosophila melanogaster; conditions: wild-type fly heads, immediately after 14 h of drug-induced waking; caffeine 2.5 mg/mL, methamphetamine 1 mg/ml
Description: as §2
Total RNA was isolated from fly heads using Trizol (Invitrogen, Carlsbad, Calif.) following the manufacturers protocol. […] Values were expressed as a percentage of untreated animals and were evaluated using a one-way ANOVA.
Sustained periods of waking in the fly can be induce pharmacologically (Hendricks, J C et al., 2000. Neuron 25: 129-138; Shaw, P J et al., 2000. Science 287: 1834-1837). […] Therefore wild-type flies were exposed to either caffeine or methamphetamine for 14 h and evaluated the magnitude of the homeostatic response. […]

[6] = system: flies; conditions: 20 μM paraquat, exposures longer than 16 h; Shaw et al. 2002; cited from earlier work
[7] = system: amylase activity; assay: Amylase activity in fly homogenates after paraquat stress (Infinity Amylase reagent); type: in vivo, Drosophila melanogaster; conditions: Cs female flies, 20 μM paraquat in 1% agar 5% sucrose for 16 h
Description: Amylase activity was evaluated following 28 h of sleep deprivation in Cs flies to match the duration of waking used in the human experiments. Female Cs flies were sleep deprived for 28 h beginning at lights out (8 pm). Whole body homogenates were extracted from 4 groups of 5 flies and compared to untreated circadian-matched controls; experiments were conducted in duplicate. Amylase activity was determined using the Infinity Amylase reagent (TR25421; Thermo Electron Corp, Louisville, Co., USA) according to the manufacturer's instructions. All samples were assayed in quadruplicate. To evaluate the effects of stress on amylase activity, Cs females were placed onto 20 μM paraquat dissolved in 1% agar 5% sucrose for 16 h and sacrificed at the same circadian time as the 28 h SD flies and their controls.

SMILES | waking produced by the drug [1] | homeostatic response / compensation for sleep lost during drug-induced waking [2] | waking produced by the drug [4] | Amylase (CG18640) mRNA expression vs. untreated controls [5] | further results
CC(N)Cc1ccccc1 (stereo not shown) [amphetamine] | produce waking | – | – | – | –
Cn1c(=O)c2c(ncn2C)n(C)c1=O [caffeine] | – | exhibit a rebound of similar magnitude as that seen following manual SD | produce sustained periods of waking | strongly activated; also recorded: exhibit significant increases in Amylase mRNA; also recorded: elevated | lost sleep recovered ([2]; 14 h of caffeine-induced waking, FIG. 5A): 30-50%; bioluminescence (counts/min) in Amy/Luc flies [3]: increased as the animals spent more time on caffeine; also recorded: progressive increase in bioluminescence
CN[C@@H](C)Cc1ccccc1 [methamphetamine] | – | do not compensate for the lost sleep; also recorded: do not induce a homeostatic response | produce sustained periods of waking | not activated; also recorded: do not induce Amylase mRNA; also recorded: not after waking induced by methamphetamine | –
COC(=O)C(c1ccccc1)C1CCCCN1 (stereo not shown) [methylphenidate] | produce waking | – | – | – | –
NC(=O)C[S+]([O-])C(c1ccccc1)c1ccccc1 (stereo not shown) [modafinil] | produce waking | – | – | – | –
C[n+]1ccc(-c2cc[n+](C)cc2)cc1 [paraquat] | – | – | – | – | lethality on paraquat [6]: flies begin to die during longer exposures; amylase activity [7]: did not alter Amylase activity
